Literature values in US20040202615A1, “Melt-processed powder containing particles' repulsion agent, evaporation retardant, and means for benefit to plant cultivation and/or animal husbandry” (priority 2003, published 2004).

Tested on: natural living organisms in water
Conditions: active ingredient level 0.04-1.0% in plastic pool and pit liners

Structure (SMILES): CCCCCCCCn1sccc1=O [2-o-octyl-4-isothiazolin-3-one]
- slowing of degradation of plastic liners by natural living organisms: significantly slows down their degradation
